Measured values published in PubChem BioAssay AID330 (DTP/NCI, 2004).
Where “and” joins values, the source holds several entries; their conditions need not be identical. Equal values may be shown once. Toxic doses and inconclusive results are not listed.

System: P388 leukemia ip, CD2F1 mice, survival T/C
Experiment: NCI In Vivo Anticancer Drug Screen. Data for tumor model P388 Leukemia (intraperitoneal) in CD2F1 (CDF1) mice
Details: endpoint: median survival time, higher = longer survival
In short: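 Mice carrying the transplanted tumor received test compound or vehicle. Survival was recorded in each group, and the value is the treated-group measurement divided by that of the vehicle-treated control group.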

[1] = dose: 50.0 mg/kg/injection, schedule: Q01DX009 (ip), vehicle: Klucel (hydroxypropylcellulose) (HPC)
[2] = dose: 100.0 mg/kg/injection, schedule: Q01DX009 (ip), vehicle: Klucel (hydroxypropylcellulose) (HPC)
[3] = dose: 12.5 mg/kg/injection, schedule: Q01DX009 (ip), vehicle: Klucel (hydroxypropylcellulose) (HPC)
[4] = dose: 25.0 mg/kg/injection, schedule: Q01DX009 (ip), vehicle: Klucel (hydroxypropylcellulose) (HPC)
[5] = dose: 6.25 mg/kg/injection, schedule: Q01DX009 (ip), vehicle: saline with Tween-80
[6] = dose: 12.5 mg/kg/injection, schedule: Q01DX009 (ip), vehicle: saline with Tween-80
[7] = dose: 25.0 mg/kg/injection, schedule: Q01DX009 (ip), vehicle: saline with Tween-80
[8] = dose: 50.0 mg/kg/injection, schedule: Q01DX009 (ip), vehicle: saline with Tween-80
[9] = dose: 50.0 mg/kg/injection, schedule: Q01DX005 (ip), vehicle: saline with Tween-80
[10] = dose: 100.0 mg/kg/injection, schedule: Q01DX005 (ip), vehicle: saline with Tween-80
[11] = dose: 200.0 mg/kg/injection, schedule: Q01DX005 (ip), vehicle: saline with Tween-80
[12] = dose: 60.0 mg/kg/injection, schedule: Q01DX005 (ip), vehicle: saline with Tween-80
[13] = dose: 120.0 mg/kg/injection, schedule: Q01DX005 (ip), vehicle: saline with Tween-80
[14] = dose: 240.0 mg/kg/injection, schedule: Q01DX005 (ip), vehicle: saline with Tween-80
[15] = dose: 50.0 mg/kg/injection, schedule: Q01DX005 (ip), vehicle: Klucel (hydroxypropylcellulose) (HPC)
[16] = dose: 100.0 mg/kg/injection, schedule: Q01DX005 (ip), vehicle: Klucel (hydroxypropylcellulose) (HPC)
[17] = dose: 200.0 mg/kg/injection, schedule: Q01DX005 (ip), vehicle: Klucel (hydroxypropylcellulose) (HPC)
[18] = dose: 100.0 mg/kg/injection, schedule: Q01DX009 (ip), vehicle: saline with Tween-80
[19] = dose: 200.0 mg/kg/injection, schedule: Q01DX009 (ip), vehicle: saline with Tween-80
[20] = dose: 100.0 mg/kg/injection, schedule: Q01DX001 (ip), vehicle: saline with Tween-80
[21] = dose: 200.0 mg/kg/injection, schedule: Q01DX001 (ip), vehicle: saline with Tween-80
[22] = dose: 400.0 mg/kg/injection, schedule: Q01DX001 (ip), vehicle: saline with Tween-80

SMILES: Cc1ccc(S(=O)(=O)N/N=C2/C=CC3(CC2)CC2C=CC3C2)cc1 (configuration not stated)
- T/C (dose: 50.0 mg/kg/injection, schedule: Q01DX001 (ip), vehicle: Klucel (hydroxypropylcellulose) (HPC)): 91 % of control
- T/C (dose: 100.0 mg/kg/injection, schedule: Q01DX001 (ip), vehicle: Klucel (hydroxypropylcellulose) (HPC)): 89 % of control
- T/C (dose: 200.0 mg/kg/injection, schedule: Q01DX001 (ip), vehicle: Klucel (hydroxypropylcellulose) (HPC)): 101 % of control

SMILES: O=C1C2C3C=CC(C3)C2C(=O)N1CNc1ccc2nc(SC3CCCC3)sc2c1 (configuration not stated)
- T/C [1]: 91 % of control
- T/C [2]: 88 % of control

SMILES: CN(C)CCC1c2ccc(Cl)cc2CCc2cccnc21 (configuration not stated) (tested in a mixture with another compound)
- T/C (dose: 50.0 mg/kg/injection, schedule: Q01DX005 (ip), vehicle: saline): 107 % of control
- T/C (dose: 100.0 mg/kg/injection, schedule: Q01DX005 (ip), vehicle: saline): 99 % of control

SMILES: NC(=O)c1ccc(=S)[nH]c1
- T/C [3]: 106 % of control
- T/C [4]: 103 % of control
- T/C [1]: 97 % of control
- T/C [2]: 103 % of control

SMILES: C/C(=C\c1ccccc1)C(=O)C(CN(C)C)CN(C)C
- T/C (dose: 1.87 mg/kg/injection, schedule: Q01DX005 (ip), vehicle: saline): 111 % of control
- T/C (dose: 3.75 mg/kg/injection, schedule: Q01DX005 (ip), vehicle: saline): 113 % of control
- T/C (dose: 7.5 mg/kg/injection, schedule: Q01DX005 (ip), vehicle: saline): 100 % of control and 113 % of control

SMILES: C=CCNC(=S)Nc1ccc(OC(=O)Nc2ccc(Cl)c(Cl)c2)cc1
- T/C [5]: 102 % of control
- T/C [6]: 96 % of control
- T/C [7]: 104 % of control
- T/C [8]: 98 % of control

SMILES: CCCCC(/C=N/NC(N)=S)C(=O)OCC (configuration not stated)
- T/C (dose: 60.0 mg/kg/injection, schedule: Q01DX005 (ip), vehicle: Klucel (hydroxypropylcellulose) (HPC)): 102 % of control
- T/C (dose: 120.0 mg/kg/injection, schedule: Q01DX005 (ip), vehicle: Klucel (hydroxypropylcellulose) (HPC)): 100 % of control
- T/C (dose: 240.0 mg/kg/injection, schedule: Q01DX005 (ip), vehicle: Klucel (hydroxypropylcellulose) (HPC)): 100 % of control

SMILES: NCC1=NCCN1
- T/C (dose: 60.0 mg/kg/injection, schedule: Q01DX005 (ip), vehicle: saline): 92 % of control
- T/C (dose: 120.0 mg/kg/injection, schedule: Q01DX005 (ip), vehicle: saline): 99 % of control
- T/C (dose: 240.0 mg/kg/injection, schedule: Q01DX005 (ip), vehicle: saline): 94 % of control

SMILES: CCOC(=O)N(C)O
- T/C [9]: 105 % of control
- T/C [10]: 107 % of control
- T/C [11]: 100 % of control
- T/C (dose: 400.0 mg/kg/injection, schedule: Q01DX005 (ip), vehicle: saline with Tween-80): 100 % of control

SMILES: Fc1c(F)c(F)c(CCc2c(F)c(F)c(F)c(F)c2F)c(F)c1F
- T/C [12]: 99 % of control
- T/C [13]: 89 % of control
- T/C [14]: 88 % of control

SMILES: COc1ccc2ncc(COC(C)=O)c(COC(C)=O)c2c1
- T/C [15]: 99 % of control
- T/C [16]: 98 % of control
- T/C [17]: 102 % of control

SMILES: CCN(CC)P(=O)(N1CC1C)N1CC1C (configuration not stated)
- T/C (dose: 33.0 mg/kg/injection, schedule: Q04DX003 (ip), vehicle: saline): 109 % of control
- T/C (dose: 75.0 mg/kg/injection, schedule: Q04DX003 (ip), vehicle: saline): 150 % of control

SMILES: Cc1cc2cc(C)c3c(Cl)nnc(Cl)c3c2o1
- T/C [9]: 106 % of control
- T/C [10]: 103 % of control
- T/C [11]: 100 % of control

SMILES: O=C(O)C(Cl)(c1ccccc1)C(Cl)c1ccccc1 (configuration not stated)
- T/C [8]: 104 % of control
- T/C [18]: 95 % of control
- T/C [19]: 100 % of control

SMILES: Cc1ccc(C2=C/C(=C/c3ccc(N(CCC#N)CCC#N)cc3)C(=O)O2)cc1C
- T/C [20]: 94 % of control
- T/C [21]: 90 % of control
- T/C [22]: 97 % of control

SMILES: CC1(c2cccc[n+]2Cc2ccc(Cl)c3ccccc23)OCCO1
- T/C (dose: 12.5 mg/kg/injection, schedule: Q01DX009 (ip), vehicle: saline): 101 % of control
- T/C (dose: 25.0 mg/kg/injection, schedule: Q01DX009 (ip), vehicle: saline): 101 % of control

SMILES: COc1ccc(C(=O)c2cccnc2C(=O)O)cc1
- T/C [8]: 105 % of control
- T/C [18]: 107 % of control
- T/C [19]: 107 % of control

SMILES: CSc1nc2c(nnn2C2OCC(O)C(O)C2O)c(=O)n1C (configuration not stated)
- T/C [12]: 102 % of control
- T/C [13]: 99 % of control
- T/C [14]: 96 % of control

SMILES: C#CCOc1ccc(Cl)cc1C(=O)O
- T/C [8]: 105 % of control
- T/C [18]: 102 % of control
- T/C [19]: 97 % of control

SMILES: O=C1NC(=O)C(Cc2ccccc2)(Cc2ccccc2)S1
- T/C [12]: 100 % of control
- T/C [13]: 103 % of control
- T/C [14]: 96 % of control

SMILES: O=[N+]([O-])c1cnc(Oc2ccccc2[N+](=O)[O-])nc1
- T/C (dose: 6.25 mg/kg/injection, schedule: Q01DX009 (ip), vehicle: Klucel (hydroxypropylcellulose) (HPC)): 107 % of control
- T/C [3]: 98 % of control
- T/C [4]: 98 % of control
- T/C [2]: 86 % of control

SMILES: O=C(NC(=S)c1ccccc1)Nc1ccc(Cl)c(Cl)c1
- T/C (dose: 8.0 mg/kg/injection, schedule: Q01DX009 (ip), vehicle: saline with Tween-80): 100 % of control
- T/C (dose: 16.0 mg/kg/injection, schedule: Q01DX009 (ip), vehicle: saline with Tween-80): 99 % of control
- T/C (dose: 32.0 mg/kg/injection, schedule: Q01DX009 (ip), vehicle: saline with Tween-80): 87 % of control

SMILES: CCOC(=O)OCC1=Nc2cccc3cccc(c23)N1
- T/C [15]: 100 % of control
- T/C [16]: 110 % of control
- T/C [17]: 108 % of control

SMILES: C=C1C(C#N)=C(SC)SC(=S)N1CC
- T/C (dose: 50.0 mg/kg/injection, schedule: Q01DX001 (ip), vehicle: saline with Tween-80): 95 % of control
- T/C [20]: 92 % of control
- T/C [21]: 93 % of control
- T/C [22]: 95 % of control

SMILES: NC(=S)Oc1ccccc1
- T/C [5]: 103 % of control
- T/C [6]: 100 % of control
- T/C [7]: 106 % of control
- T/C [18]: 93 % of control
- T/C [19]: 93 % of control

SMILES: C=C1C(=O)OC2/C=C(\C)CC/C=C(/C)CC(OC(=O)/C(=C/CO)CO)C12 (configuration not stated)
- T/C (dose: 5.0 mg/kg/injection, schedule: Q01DX009 (ip), vehicle: Klucel (hydroxypropylcellulose) (HPC)): 108 % of control and 113 % of control
- T/C (dose: 10.0 mg/kg/injection, schedule: Q01DX009 (ip), vehicle: Klucel (hydroxypropylcellulose) (HPC)): 106 % of control and 115 % of control (2×)
- T/C (dose: 20.0 mg/kg/injection, schedule: Q01DX009 (ip), vehicle: Klucel (hydroxypropylcellulose) (HPC)): 106 % of control and 117 % of control
- T/C (dose: 40.0 mg/kg/injection, schedule: Q01DX009 (ip), vehicle: Klucel (hydroxypropylcellulose) (HPC)): 113 % of control and 117 % of control and 89 % of control

SMILES: CC(C)(C)C(=O)Nc1ccccc1-c1ccccc1
- T/C (dose: 100.0 mg/kg/injection, schedule: Q04DX003 (ip), vehicle: saline): 93 % of control
- T/C (dose: 200.0 mg/kg/injection, schedule: Q04DX003 (ip), vehicle: saline): 92 % of control
- T/C (dose: 400.0 mg/kg/injection, schedule: Q04DX003 (ip), vehicle: saline): 94 % of control

SMILES: CS(=O)CC(C)(O)C1OC(=O)C=C2C3(C)CC4OC4C4(C)C(=O)OC(C34)C3OC231 (configuration not stated)
- T/C (dose: 2.5 mg/kg/injection, schedule: Q01DX009 (ip), vehicle: DMSO): 108 % of control
- T/C (dose: 20.0 mg/kg/injection, schedule: Q01DX009 (ip), vehicle: DMSO): 151 % of control
